The values below come from patent US20080206311A1, “Sucrase Activity Inhibitor, Glucoamylase Activity Inhibitor and Food and Feed Containing the Same” (MITSUI SUGAR CO., LTD., priority 2005, published 2008).

Test [1] deals with small-intestinal enzyme liquid. Briefly: Decomposition of a saccharide alone (control solution) by small-intestinal enzyme liquid. Type of test: biochemical, rat. Here is the method: (§1) Palatinose (trade name: Palatinose IC, ex Shin Mitsui Sugar Co., Ltd.) (test sample) was used as a sample for investigating each enzyme activity inhibitory effect. Maltose and sucrose were used as substrates for maltase and sucrose, respectively. The test sample and the substrates were dissolved in 0.1 M phosphate buffer (pH 6.8) at the concentration shown in Table 1 below to prepare test solutions (Solutions 4 and 5). Also, the test sample or the substrates were dissolved in 0.1 M phosphate buffer (pH 6.8), respectively to at the concentration shown in Table 1 below to prepare control solutions (Solution 1 for the test sample and Solutions 2 and 3 for the substrates).
(§2) Two grams of rat small-intestinal acetone powder (ex Sigma Corporation) were dissolved in 20 ml of 0.1 M phosphate buffer (pH 6.8), left standing one day at 5° C., and subsequently subjected to centrifugal separation (8000 rpm×15 min.). The supernatant was filtered through a 0.8 μm membrane filter to obtain a small-intestinal enzyme liquid. This liquid contained a mixture of enzymes present in small intestine, such as sucrose, glucoamylase, maltase, and isomaltase.
(§3) Each 0.25 ml of the small-intestinal enzyme liquid was added to each 5 ml of Solutions 1 through 5 and placed in a water bath at 37° C. to allow them to react for 60 min. while shaken at 60 strokes/min. After the reaction, they were heated in a boiling water bath for 3 min. for inactivation of the enzymes.
(§4) The glucose concentration in each solution after the reaction was measured using the F-kit Glucose (ex Roche). A liberated glucose concentration (g/l) was calculated by subtracting the blank value (0.1 M phosphate buffer alone) and the concentration of glucose originally contained in the test sample from each glucose concentration measured.
The fructose concentration was measured using the F-kit Fructose (ex Roche). The liberated fructose concentration, g/l, was obtained by subtracting the blank value (0.1 M phosphate buffer alone) from the resultant fructose concentration.
The procedures in Example 1 were repeated with the exception that palatinit, palatinose or isomaltose was used as a test sample and lactose was used as a substrate. The test samples and the substrate were dissolved in 0.1 M phosphate buffer (pH 6.8) to attain the concentration shown in Table 5 to thereby prepare three test solutions. Besides, each of the test samples or the substrate was dissolved in 0.1 M phosphate buffer (pH 6.8) to attain the concentration shown in Table 5 to thereby prepare control solutions. Each 5 ml of the aforementioned test solutions and the control solutions was subjected to the enzymatic reaction according to the same procedures as in Example 1. The glucose concentration, the fructose concentration and the galactose concentration were measured. The galactose concentration was measured using F-kit Galactose (ex Roche). The liberated galactose concentration, g/l, was calculated by subtracting the blank value (0.1 M phosphate buffer alone) from the measured galactose concentration.

In test [2] the target is T1, sucrose-isomaltase complex (Rattus norvegicus, UniProt P23739).
T1 construct: tissue Sigma Corporation; host or cells: rat small intestine (acetone powder); papain treatment, 45-65% ammonium sulfate cut, dialysis, DEAE-Cellulose fraction with highest sucrase activity
T1 sequence (P23739 33-1841 limits assumed, one chain of several): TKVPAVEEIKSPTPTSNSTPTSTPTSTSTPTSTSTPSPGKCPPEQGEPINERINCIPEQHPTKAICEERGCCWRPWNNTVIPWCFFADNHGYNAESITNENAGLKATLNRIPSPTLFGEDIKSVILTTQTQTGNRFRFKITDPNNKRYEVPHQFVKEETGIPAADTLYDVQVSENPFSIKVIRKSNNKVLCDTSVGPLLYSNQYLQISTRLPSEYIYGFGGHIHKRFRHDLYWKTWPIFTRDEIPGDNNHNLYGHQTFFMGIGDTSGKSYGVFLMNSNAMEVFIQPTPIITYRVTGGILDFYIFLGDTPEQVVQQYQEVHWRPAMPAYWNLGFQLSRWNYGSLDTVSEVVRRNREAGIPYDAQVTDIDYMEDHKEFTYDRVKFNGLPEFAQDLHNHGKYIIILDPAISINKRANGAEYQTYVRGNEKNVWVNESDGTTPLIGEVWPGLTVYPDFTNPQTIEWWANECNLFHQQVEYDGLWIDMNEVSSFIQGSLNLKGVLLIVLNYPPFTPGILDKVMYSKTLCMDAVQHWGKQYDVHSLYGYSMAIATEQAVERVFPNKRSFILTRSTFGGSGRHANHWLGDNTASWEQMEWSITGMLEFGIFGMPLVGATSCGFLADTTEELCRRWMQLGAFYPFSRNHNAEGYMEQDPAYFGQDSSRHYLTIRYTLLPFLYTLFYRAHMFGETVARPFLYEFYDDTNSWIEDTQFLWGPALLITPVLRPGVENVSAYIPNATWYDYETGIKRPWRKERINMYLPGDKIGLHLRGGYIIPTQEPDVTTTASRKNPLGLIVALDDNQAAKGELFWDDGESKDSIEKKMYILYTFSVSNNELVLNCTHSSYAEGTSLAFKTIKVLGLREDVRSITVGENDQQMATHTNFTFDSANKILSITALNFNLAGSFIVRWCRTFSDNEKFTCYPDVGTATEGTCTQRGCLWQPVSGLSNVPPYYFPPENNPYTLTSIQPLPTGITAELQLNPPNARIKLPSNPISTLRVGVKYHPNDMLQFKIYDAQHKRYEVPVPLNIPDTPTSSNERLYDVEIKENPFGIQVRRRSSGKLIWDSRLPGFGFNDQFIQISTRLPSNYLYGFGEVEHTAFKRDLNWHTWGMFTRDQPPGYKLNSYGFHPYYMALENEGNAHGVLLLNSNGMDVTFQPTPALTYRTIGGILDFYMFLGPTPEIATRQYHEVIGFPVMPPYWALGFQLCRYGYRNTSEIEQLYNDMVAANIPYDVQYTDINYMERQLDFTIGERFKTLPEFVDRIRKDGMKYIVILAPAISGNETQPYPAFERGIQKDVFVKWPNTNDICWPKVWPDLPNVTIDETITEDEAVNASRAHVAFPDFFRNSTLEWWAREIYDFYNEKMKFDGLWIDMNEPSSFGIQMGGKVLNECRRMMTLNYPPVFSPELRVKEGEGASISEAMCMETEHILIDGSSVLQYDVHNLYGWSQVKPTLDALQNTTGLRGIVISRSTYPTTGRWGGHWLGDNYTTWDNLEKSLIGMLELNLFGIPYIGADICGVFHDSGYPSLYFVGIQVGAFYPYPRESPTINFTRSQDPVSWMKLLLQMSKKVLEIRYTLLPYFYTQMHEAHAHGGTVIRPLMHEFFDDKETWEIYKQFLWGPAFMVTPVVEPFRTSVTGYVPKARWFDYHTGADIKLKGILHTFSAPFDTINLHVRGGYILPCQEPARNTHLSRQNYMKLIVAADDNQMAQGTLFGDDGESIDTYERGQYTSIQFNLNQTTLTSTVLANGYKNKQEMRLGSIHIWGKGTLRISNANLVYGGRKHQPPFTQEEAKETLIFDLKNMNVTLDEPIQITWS
Briefly: Confirmation test: decomposability of the sucrose-isomaltase complex (crude enzyme) on dextrin. The class given is biochemical. Particulars: 37° C., 20 min. Here is the method: Decomposability of the sucrose-isomaltase complex on dextrin was investigated in order to confirm that decomposition of starch in the following Examples 4, 6 and 7 and Test Example 5 was attained by glucoamylase, but not by sucrose or isomaltase.
A. Extraction of a crude enzyme, sucrose-isomaltase complex Twenty grams of rat small-intestinal acetone powder (ex Sigma Corporation) were added to 180 ml of 50 mM potassium phosphate buffer (pH 7.0) and extracted for 4 hours while slowly stirred at room temperature, to which 6.5 ml of a cysteine solution (100 mg/10 ml) and 1.5 ml of a papain solution (MP Biomedicals, LLC 80 mg/2 ml) were subsequently added and the mixture was incubated at 37° C. for 1 hour to conduct a papain treatment. Then, a supernatant was recovered by centrifugal separation (8000 rpm×15 min.) and further filtered by aspiration using Toyo Filter Paper No. 2 to obtain 164 ml of a crude enzyme solution. Protein was precipitated at an ammonium sulfate concentration of 45% from the crude enzyme solution and then a supernatant was recovered by centrifugal separation (8000 rpm×15 min.). Next, ammonium sulfate was added to the supernatant up to a concentration of 65% to precipitate protein, and then the precipitate was recovered by centrifugal separation (8000 rpm×15 min.). […] The enzymatic activity was measured for each fraction and the fraction with the highest activity of a sucrose-isomaltase complex was recovered to obtain a 12 ml crude enzyme solution. The sucrose-isomaltase complex activity was determined by measuring a decomposition activity for sucrose in each fraction. […] A glucose concentration was determined using the F-kit Glucose (ex Roche) described in item D below. […]
A glucose concentration in each sample after the reaction was measured using the F-kit Glucose (ex Roche Corporation). A liberated glucose concentration (g/l) was calculated by subtracting a blank value (0.1 M phosphate buffer alone (pH 6.8)) and a concentration of glucose originally contained in the test sample (dextrin and sucrose) from the determined glucose concentration.

Test [3] deals with glucoamylase. Briefly: Glucoamylase activity inhibition with rat small-intestinal enzyme liquid, substrate soluble starch. Particulars: 5% soluble starch + 5% test sample. Type of test: biochemical. Here is the method:
as §2, §3, §4
(§5) Next, each of the liberated glucose concentration was input in the following equation to obtain decomposition inhibition ratio for maltase and sucrose. In the present tests, the substrates and the inhibitors were decomposed by enzymes present in the small-intestinal enzyme liquid. However, the enzymes decomposing the substrates are different from the enzymes decomposing the inhibitors. The decomposition inhibition ratio was determined as a measure for the inhibitory effect. When the inhibitor was added, the glucose concentration was lower than that seen when the substrate alone was reacted. A higher decomposition inhibition ratio means a stronger inhibitory effect.
(§6) Decomposition inhibition ratio,%={(A+B)−(AB)}+(A+B)×100 [Equation 1]
(§7) wherein (A+B) indicates a sum of a liberated glucose concentration in the control solution containing the test sample alone after the reaction (A) and a liberated glucose concentration in the control solution containing the substrate alone after the reaction (B); and (AB) indicates a liberated glucose concentration in the test solution containing the test sample (A) and the substrate (B), after the reaction.
The procedures in Example 1 were repeated with the exception that palatinose and palatinit were used as a test sample and soluble starch was used as a substrate. The test samples and the substrate were dissolved in 0.1 M phosphate buffer (pH 6.8) to attain the concentration shown in Table 6 to thereby prepare two test solutions. Besides, each of the test samples or the substrate was dissolved in 0.1 M phosphate buffer (pH 6.8) to attain the concentration shown in Table 6 to thereby prepare control solutions. Each 5 ml of the aforementioned test solutions and the control solutions was subjected to the enzymatic reaction according to the same procedures as in Example 1 and the liberated glucose concentration and the decomposition inhibition ratio were measured.
The procedures in Example 1 were repeated with the exception that trehalulose was used as a test sample and soluble starch was used as a substrate. The test sample and the substrate were dissolved in 0.1 M phosphate buffer (pH 6.8) to attain the concentration shown in Table 9 to thereby prepare a test solution. Besides, the test sample or the substrate was dissolved in 0.1 M phosphate buffer (pH 6.8) to attain the concentration shown in Table 9 to thereby prepare control solutions. Each 5 ml of the aforementioned test solution and the control solutions was subjected to the enzymatic reaction according to the same procedures as in Example 1 and the liberated glucose concentration and the decomposition inhibition ratio were measured.
The procedures in Example 1 were repeated with the exception that trehalose was used as a test sample and soluble starch was used as a substrate. […]

Test [4] concerns the target (Homo sapiens, UniProt P14410). Particulars: 5-75 mM sucrose as substrate, 5 mM trehalulose as inhibitor; cited from earlier work.
Test [5] concerns the target T2, sucrase (Rattus norvegicus, UniProt P23739).
T2 construct: This liquid contained a mixture of enzymes present in small intestine, such as sucrose, glucoamylase, maltase, and isomaltase; tissue Sigma Corporation; host or cells: rat small intestine (acetone powder), buffer extract, unpurified
Briefly: Sucrase activity inhibition with rat small-intestinal enzyme liquid, substrate sucrose. Particulars: 5% sucrose + 5% test sample. The class given is biochemical. On the procedure:
as §1, §2, §3, §4, §5, §6, §7
The procedures in Example 1 were repeated with the exception that the test solutions contained 5% of sucrose and 0.5%, 1.0%, 3.0% or 5.0% of palatinose to examine intensity of the sucrose activity inhibition. A control solution contained 5% of sucrose in 0.1 M phosphate buffer (pH 6.8).
The procedures in Example 1 were repeated with the exception that palatinit and palatinose were used as test samples and sucrose was used as a substrate. The test samples and the substrate were dissolved in 0.1 M phosphate buffer (pH 6.8) to attain the concentration shown in Table 3 to thereby prepare two test solutions. Besides, each one of the test samples or the substrate was dissolved in 0.1 M phosphate buffer (pH 6.8) to attain the concentration shown in Table 3 to thereby prepare control solutions. Each 5 ml of the aforementioned test solutions or the control solutions was subjected to the enzymatic reaction according to the same procedures as in Example 1. The glucose concentration and the fructose concentration were measured. […]

Where [6] appears, read: 5% saccharide alone, Example 3 / Test Examples 2, 3.
Setting [7] is: 5% saccharide alone, Example 5 / Test Example 4.
Setting [8] is: crude enzyme liquid 0.125 ml, dextrin 2% (Sample 1) or sucrose 26.6 mM (Sample 3).

T2 sequence (P23739 whole entry): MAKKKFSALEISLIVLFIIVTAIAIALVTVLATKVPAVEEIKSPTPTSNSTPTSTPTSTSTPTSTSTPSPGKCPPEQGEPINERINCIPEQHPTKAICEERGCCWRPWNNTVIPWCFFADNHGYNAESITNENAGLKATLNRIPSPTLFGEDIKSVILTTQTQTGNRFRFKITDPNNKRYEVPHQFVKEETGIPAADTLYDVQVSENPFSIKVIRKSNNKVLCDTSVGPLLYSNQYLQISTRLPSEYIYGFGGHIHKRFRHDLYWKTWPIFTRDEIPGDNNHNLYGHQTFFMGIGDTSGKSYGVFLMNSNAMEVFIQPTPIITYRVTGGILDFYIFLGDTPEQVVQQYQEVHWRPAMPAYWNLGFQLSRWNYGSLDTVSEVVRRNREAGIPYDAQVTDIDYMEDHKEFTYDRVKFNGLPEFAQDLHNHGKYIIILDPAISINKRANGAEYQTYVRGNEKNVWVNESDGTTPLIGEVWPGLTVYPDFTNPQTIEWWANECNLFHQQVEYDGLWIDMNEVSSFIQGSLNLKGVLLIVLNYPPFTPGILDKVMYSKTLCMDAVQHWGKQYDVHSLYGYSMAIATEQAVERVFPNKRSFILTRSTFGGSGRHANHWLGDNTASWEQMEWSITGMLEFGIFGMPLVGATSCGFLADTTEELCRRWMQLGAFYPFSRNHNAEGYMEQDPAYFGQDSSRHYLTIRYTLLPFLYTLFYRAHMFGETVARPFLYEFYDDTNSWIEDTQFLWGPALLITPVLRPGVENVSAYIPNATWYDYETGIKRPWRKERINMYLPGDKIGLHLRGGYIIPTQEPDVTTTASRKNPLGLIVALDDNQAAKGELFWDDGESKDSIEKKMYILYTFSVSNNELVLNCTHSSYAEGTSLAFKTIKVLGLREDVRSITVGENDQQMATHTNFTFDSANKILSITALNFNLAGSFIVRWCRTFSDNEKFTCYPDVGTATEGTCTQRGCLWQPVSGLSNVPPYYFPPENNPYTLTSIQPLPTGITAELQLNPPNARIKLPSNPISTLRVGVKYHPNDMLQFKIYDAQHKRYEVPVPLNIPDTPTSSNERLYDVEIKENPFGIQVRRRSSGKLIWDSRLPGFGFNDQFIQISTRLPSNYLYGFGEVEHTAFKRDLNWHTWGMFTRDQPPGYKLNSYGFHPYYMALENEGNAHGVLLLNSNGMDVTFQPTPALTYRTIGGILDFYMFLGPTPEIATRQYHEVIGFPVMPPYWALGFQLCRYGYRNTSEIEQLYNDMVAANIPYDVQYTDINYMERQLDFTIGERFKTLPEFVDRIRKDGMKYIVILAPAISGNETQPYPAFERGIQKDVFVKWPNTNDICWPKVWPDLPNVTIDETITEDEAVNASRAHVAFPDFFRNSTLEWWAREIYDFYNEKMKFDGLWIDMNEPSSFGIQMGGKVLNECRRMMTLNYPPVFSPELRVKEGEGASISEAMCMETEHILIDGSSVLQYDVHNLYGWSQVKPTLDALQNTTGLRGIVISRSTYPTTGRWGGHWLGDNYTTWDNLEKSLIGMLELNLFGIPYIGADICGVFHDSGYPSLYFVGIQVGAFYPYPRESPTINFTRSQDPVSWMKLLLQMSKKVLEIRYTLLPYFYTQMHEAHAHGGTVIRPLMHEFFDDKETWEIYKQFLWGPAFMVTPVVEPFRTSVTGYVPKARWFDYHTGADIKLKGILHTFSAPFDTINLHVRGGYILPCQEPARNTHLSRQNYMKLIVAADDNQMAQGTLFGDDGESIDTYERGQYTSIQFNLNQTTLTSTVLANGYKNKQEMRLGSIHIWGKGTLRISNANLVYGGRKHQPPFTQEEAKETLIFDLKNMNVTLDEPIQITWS

`OC[C@H]1O[C@@](CO)(O[C@H]2O[C@H](CO)[C@@H](O)[C@H](O)[C@H]2O)[C@@H](O)[C@@H]1O` [sucrose]: the Liberated glucose concentration amounted to 0.959 ± 0.022 g/L in test [1] (5% saccharide alone, 37° C., 60 min, pH 6.8, Example 1 / Test Example 1); 1.01 g/L in test [1] (setting [6]); 1.628 g/L in test [1] (setting [7]). In test [1] (setting [6]), the Liberated fructose concentration amounted to 1.09 g/L. Moreover, in test [1] (control solution with sucrose only, 5%), the “Total concentration of liberated monosaccharides (glucose + fructose)” value is 2.10 g/L. The “Mean amount of produced glucose” value in test [2] (setting [8]) worked out at 0.474 g/L.

In the case of dextrin, the “Mean amount of produced glucose” value in test [2] (setting [8]) amounted to 0.057 g/L; in test [2] (crude enzyme liquid 0.25 ml, dextrin 2% (Sample 2)), 0.088 g/L.

For trehalulose, the Liberated glucose concentration in test [1] (setting [7]) was determined as 0.558 g/L; in test [1] (5% saccharide alone, Example 6 / Test Example 5), 0.411 g/L; in test [3] (Example 6 / Test Example 5), 2.028 g/L; in test [5] (Example 5 / Test Example 4) it was 1.403 g/L. In addition, in test [3], the “Glucoamylase activity inhibitory effect (in words)” value is reported as “has a glucoamylase activity inhibitory effect”. Also, the “Decomposition inhibition ratio, %, against glucoamylase” value in test [3] (Example 6 / Test Example 5) was found to be 28%. In addition, the “Inhibitory effect on the sucrase activity (reported)” value in test [4] is reported as “no inhibitory effect”. Also, the “Sucrase activity inhibitory effect (in words)” value in test [5] is reported as “has the sucrose activity inhibitory effect”. In addition, the “Decomposition inhibition ratio, %, against sucrase” value in test [5] (Example 5 / Test Example 4) is 36%.
